{"source": "patent US20080051453A1", "about": "“Sorbic acid analog co-crystals” (priority 2006, published 2008)", "assay": "Pharmacokinetic parameters in male cynomolgus monkeys after nasogastric gavage (suspension) or oral (tablet) administration", "assay_type": "in vivo", "conditions": "for mean AUC relative to the suspension formulation / mean Cmax relative to the suspension formulation: oral, male cynomolgus monkeys, N=4/group", "excerpt": "Pharmacokinetic Parameters and Summary Statistics for Male Cynomolgus Monkeys Following Nasogastric Gavage (2% Pluronic F108 in OraPlus Suspension) or Oral (Tablet Formulations) Administration (N=4/group)", "key": {"[1]": {"conditions": "\"in situ\" sorbic acid cocrystal/physical blend tablet (first mention, % CV~50-60)"}, "[2]": {"conditions": "tablet printed again as \"in situ\" sorbic acid cocrystal/physical blend tablet (second mention, % CV~30-45)"}}}
{"molecule": "N-(4-(6-(4-(trifluoromethyl)phenyl)pyrimidin-4-yloxy)benzo[d]thiazol-2-yl)acetamide sorbic acid co-crystal [Example 5]", "values": [{"measurement": "mean AUC relative to the suspension formulation", "setting": "[1]", "value": "52-63%"}, {"measurement": "mean Cmax relative to the suspension formulation", "setting": "[1]", "value": "52-63%"}, {"measurement": "mean AUC relative to the suspension formulation", "setting": "[2]", "value": "approximately 65%"}, {"measurement": "mean Cmax relative to the suspension formulation", "setting": "[2]", "value": "approximately 65%"}]}
{"molecule": "CC(=O)Nc1nc2c(Oc3cc(-c4ccc(C(F)(F)F)cc4)ncn3)cccc2s1", "note": "[Example 4, N-(4-(6-(4-(trifluoromethyl)phenyl)pyrimidin-4-yloxy)benzo[d]thiazol-2-yl)acetamide freebase]", "values": [{"measurement": "mean AUC relative to the suspension formulation of Example 4", "setting": "cynomolgus monkey, in vivo, po", "value": "17-19%"}, {"measurement": "mean Cmax relative to the suspension formulation of Example 4", "setting": "cynomolgus monkey, in vivo, po", "value": "17-19%"}]}
